The values below are quoted from earlier work in patent US12433839B2, “Sustained release particle formulations” (Adare Pharmaceuticals USA, Inc., priority 2011, dated 2025).

For this series the following is noted: in vivo.

As to `COc1ccccc1OCC(O)CO` (stereo not shown) [guaifenesin], the typical plasma half-life result is “about one”.
